# PubChem BioAssay AID296 (DTP/NCI, 2004)
# Where “and” joins values, the source holds several entries; their conditions need not be identical. Identical values can stand only once. Records with an inconclusive call do not appear.
# Tested on: MX-1 breast xenograft, nude mice, tumor weight T/C
# Assay: NCI In Vivo Anticancer Drug Screen. Data for tumor model Human Mammary Carcinoma MX-1 Xenograft (intrarenal inoculation) in NU/NU Swiss (nude) mice
# Conditions: endpoint: mean tumor weight change, higher = larger tumour
# In short: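 Antitumour effect measured in vivo against vehicle controls, expressed as T/C.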
# [1] = dose: 100.0 mg/kg/injection, schedule: Q01DX010 (sc), vehicle: saline
# [2] = dose: 100.0 mg/kg/injection, schedule: Q04DX003 (sc), vehicle: saline with Tween-80
# [3] = dose: 200.0 mg/kg/injection, schedule: Q04DX003 (sc), vehicle: saline with Tween-80
# [4] = dose: 300.0 mg/kg/injection, schedule: Q04DX003 (sc), vehicle: saline with Tween-80
# [5] = dose: 600.0 mg/kg/injection, schedule: Q04DX003 (sc), vehicle: saline with Tween-80
smiles,measurement,setting,value
CC[C@@]1(O)C[C@H](OC2CC(N(C)C)C(OC3CC(O)C(OC4CCC(=O)C(C)O4)C(C)O3)C(C)O2)c2c(cc3c(c2O)C(=O)c2c(O)cccc2C3=O)[C@H]1C(=O)OC (stereo partly drawn),T/C,"dose: 0.25 mg/kg/injection, schedule: Q01DX010 (sc), vehicle: water",91 % of control
same,T/C,"dose: 0.5 mg/kg/injection, schedule: Q01DX010 (ip), vehicle: water",74 % of control and 78 % of control
same,T/C,"dose: 0.5 mg/kg/injection, schedule: Q01DX010 (sc), vehicle: water",113 % of control
same,T/C,"dose: 1.0 mg/kg/injection, schedule: Q01DX010 (sc), vehicle: water",35 % of control
same,T/C,"dose: 2.0 mg/kg/injection, schedule: Q01DX010 (ip), vehicle: water",7 % of control
same,T/C,"dose: 4.0 mg/kg/injection, schedule: Q01DX010 (sc), vehicle: water",65 % of control
CC1(C)CC1(Br)Br,T/C,"dose: 25.0 mg/kg/injection, schedule: Q01DX010 (sc), vehicle: saline with Tween-80",71 % of control
same,T/C,"dose: 100.0 mg/kg/injection, schedule: Q01DX010 (sc), vehicle: saline with Tween-80",118 % of control
same,T/C,"dose: 200.0 mg/kg/injection, schedule: Q01DX010 (sc), vehicle: saline with Tween-80",153 % of control
NC1(C(=O)O)CCCC1,T/C,"dose: 12.5 mg/kg/injection, schedule: Q01DX010 (sc), vehicle: saline",103 % of control
same,T/C,"dose: 50.0 mg/kg/injection, schedule: Q01DX010 (sc), vehicle: saline",25 % of control and 41 % of control
same,T/C,[1],7 % of control and 8 % of control
Clc1ccc2nnnn2n1,T/C,[2],173 % of control
same,T/C,[3],95 % of control
CCCCCn1c(C)cc(/C=C\c2ccc3cc(C)ccc3[n+]2C)c1C,T/C,"dose: 0.38 mg/kg/injection, schedule: Q04DX003 (sc), vehicle: Klucel (hydroxypropylcellulose) (HPC)",174 % of control
same,T/C,"dose: 0.75 mg/kg/injection, schedule: Q04DX003 (sc), vehicle: Klucel (hydroxypropylcellulose) (HPC)",62 % of control
same,T/C,"dose: 1.5 mg/kg/injection, schedule: Q04DX003 (sc), vehicle: Klucel (hydroxypropylcellulose) (HPC)",109 % of control
same,T/C,"dose: 3.0 mg/kg/injection, schedule: Q04DX003 (sc), vehicle: Klucel (hydroxypropylcellulose) (HPC)",74 % of control
c1cc2c(c(CC3CO3)c1CC1CO1)OCCOCCOCCOCCO2 (stereo not drawn),T/C,"dose: 75.0 mg/kg/injection, schedule: Q04DX003 (ip), vehicle: saline + alcohol",57 % of control
same,T/C,"dose: 150.0 mg/kg/injection, schedule: Q04DX003 (ip), vehicle: saline + alcohol",65 % of control
same,T/C,"dose: 300.0 mg/kg/injection, schedule: Q04DX003 (ip), vehicle: saline + alcohol",78 % of control
COc1ccc(C(=O)c2no[n+]([O-])c2C(=O)c2ccc(OC)cc2)cc1,T/C,[4],121 % of control
same,T/C,[5],91 % of control
same,T/C,"dose: 1200.0 mg/kg/injection, schedule: Q04DX003 (sc), vehicle: saline with Tween-80",66 % of control
same,T/C,"dose: 2400.0 mg/kg/injection, schedule: Q04DX003 (sc), vehicle: saline with Tween-80",88 % of control
ClCCCN1CCN(CCCCl)CC1,T/C,"dose: 75.0 mg/kg/injection, schedule: Q04DX003 (sc), vehicle: saline + alcohol",113 % of control
same,T/C,"dose: 150.0 mg/kg/injection, schedule: Q04DX003 (sc), vehicle: saline + alcohol",28 % of control
CC(=O)Nc1ccc(S(=O)(=O)CO)cc1,T/C,[4],121 % of control
same,T/C,[5],85 % of control
Cc1ccc(N)c(N)c1,T/C,[3],87 % of control
same,T/C,"dose: 800.0 mg/kg/injection, schedule: Q04DX003 (sc), vehicle: saline with Tween-80",112 % of control
COc1ccc(S(=O)(=O)N/N=C/C(=O)O)cc1,T/C,"dose: 12.5 mg/kg/injection, schedule: Q01DX010 (sc), vehicle: saline with Tween-80",116 % of control
O=C(O)CP(=O)(O)O,T/C,"dose: 300.0 mg/kg/injection, schedule: Q04DX003 (sc), vehicle: saline",87 % of control
same,T/C,"dose: 600.0 mg/kg/injection, schedule: Q04DX003 (sc), vehicle: saline",89 % of control
same,T/C,"dose: 1200.0 mg/kg/injection, schedule: Q04DX003 (sc), vehicle: saline",83 % of control
same,T/C,"dose: 2400.0 mg/kg/injection, schedule: Q04DX003 (sc), vehicle: saline",59 % of control
C[CH2][Pb]([CH2]C)([CH2]C)[O]C(=O)COc1ccccc1,T/C,"dose: 4.5 mg/kg/injection, schedule: Q04DX003 (sc), vehicle: saline with Tween-80",66 % of control
same,T/C,"dose: 9.0 mg/kg/injection, schedule: Q04DX003 (sc), vehicle: saline with Tween-80",112 % of control
same,T/C,"dose: 18.0 mg/kg/injection, schedule: Q04DX003 (sc), vehicle: saline with Tween-80",79 % of control
C=C(C)C(=NC(C)(C)C)Nc1ccccc1,T/C,[2],101 % of control
C(CC1CO1)C1CO1 (stereo not drawn),T/C,[1],-59 % of control and -41 % of control
same,T/C,"dose: 150.0 mg/kg/injection, schedule: Q04DX003 (sc), vehicle: suspension in saline",1 % of control and 11 % of control
same,T/C,"dose: 300.0 mg/kg/injection, schedule: Q04DX003 (sc), vehicle: suspension in saline",4 % of control
